Data reported in patent US20040142819A1, “Compositions and methods for synergistic weed control” (priority 2003, published 2004).

Tests used:
[1] = tested on: TRFRE (white clover, approximate height 3 inches); assay: Field plot weed control, visual % control, white clover; assay type: in vivo
Procedure: (§1) In this evaluation, seedling weeds of rhizome johnsongrass and white clover were grown in a field plot until they reached a height of 3 feet (0.9 m) and 3 inches (8 cm) respectively. The plants were then sprayed with an aqueous solution or emulsification of the test compounds at various rates as indicated in Table II. The control % (on a visual basis) is shown in Table II for 7 and 16 days after treatment.
(§2) Sethoxydim is formulated as a 1.5 lb ai/g (0.68 kg ai/g) emulsification.
(§3) Imazapyr is formulated as a 4.0 lb ai/g (1.8 kg ai/g) aqueous solution.
TRFRE is white clover with an approximate height of 3 inches (8 cm).

[2] = tested on: SORHAZ (johnsongrass, approximate height 3 feet); assay: Field plot weed control, visual % control, rhizome johnsongrass; assay type: in vivo
Procedure: as §1, §2, §3
SORHAZ is johnsongrass with an approximate height of 3 feet (0.9 m).

[3] = tested on: Sorghum halepense (Johnsongrass); assay: Greenhouse post-emergence weed control of seedling johnsongrass, visual % control, Colby expected response
Procedure: In this evaluation, seedling johnsongrass was grown in 9-cm diameter styrofoam cups in a soil medium of a 1:1 mixture of top-soil from a Freestone fine sandy loam (fine-loamy, siliceous, thermic Aquic Paleudalf) and masonry sand. The temperature in the greenhouse was maintained at 31 ″5° C. for several weeks until the plants were approximately 5-inch (13 cm) leaf seedlings. Said plants were then sprayed with an aqueous solution of the test compounds at the rates indicated in Tables Ia and Ib as measured in lbs of herbicide per acre. Each treatment was replicated 4 times and the average control % (on a visual basis) is shown in Table Ia for 10 days after treatment and Table Ib for 20 days after treatment.
The methods described by Colby in “Calculating Synergistic and Antagonistic Responses of Herbicide Combinations,” 15 Weeds 20-22 (1967), were used to calculate interactions of herbicide tank mixtures. The expected response for tank mixtures was calculated by taking the product of the recorded values from the herbicides applied alone and dividing by 100.

[4] = Treatment 3: graminicide 0, imidazolinone 0.008 lb/A (0.009 kg/ha)
[5] = 10 Days After Treatment, Sethoxydim 0 lb/A, imidazolinone 0.008 lb/A (0.009 kg/ha)
[6] = 10 Days After Treatment, Sethoxydim 0 lb/A, imidazolinone 0.016 lb/A (0.018 kg/ha)
[7] = 10 Days After Treatment, Sethoxydim 0 lb/A, imidazolinone 0.032 lb/A (0.036 kg/ha)
[8] = 20 Days After Treatment, Sethoxydim 0 lb/A, imidazolinone 0.008 lb/A (0.009 kg/ha)
[9] = 20 Days After Treatment, Sethoxydim 0 lb/A, imidazolinone 0.016 lb/A (0.018 kg/ha)
[10] = 20 Days After Treatment, Sethoxydim 0 lb/A, imidazolinone 0.032 lb/A (0.036 kg/ha)
[11] = Treatment 2: graminicide 0.20 lb/A (0.22 kg/ha), imidazolinone 0

## CC(C)C1(C)N=C(c2ncccc2C(=O)O)NC1=O (stereo not shown) [imazapyr, (″)-2-[4,5-dihydro-4-methyl-4-(1-methylethyl)-5-oxo-1H-imidazol-2-yl]-3-pyridinecar-boxylic acid]
[1]; [4]
  TRFRE 7 DAT Control (%): 0%
  TRFRE 16 DAT Control (%): 0%
[2]; [4]
  SORHAZ 7 DAT Control (%): 0%
  SORHAZ 16 DAT Control (%): 0%

## CC(C)C1(C)N=C(c2nc3ccccc3cc2C(=O)O)NC1=O (stereo not shown) [imazaquin, 2-(4,5-dihydro-4-methyl-4-(1-methyl-ethyl)-5-oxo-1H-imidazol-2-yl]-3-quinolinecarboxylic acid]
[3]; [5]
  Actual Control (%): 0%
[3]; [6]
  Actual Control (%): 0%
[3]; [7]
  Actual Control (%): 0%
[3]; 10 Days After Treatment, Sethoxydim 0 lb/A, imidazolinone 0.063 lb/A (0.070 kg/ha)
  Actual Control (%): 0%
[3]; [8]
  Actual Control (%): 0%
[3]; [9]
  Actual Control (%): 2.5%
[3]; [10]
  Actual Control (%): 3.8%
[3]; 20 Days After Treatment, Sethoxydim 0 lb/A, imidazolinone 0.063 lb/A (0.070 kg/ha)
  Actual Control (%): 5%

## COCc1cnc(C2=NC(C)(C(C)C)C(=O)N2)c(C(=O)O)c1 (stereo not shown) [imazamox, 2-[4,5-dihydro-4-methyl-4-(1-methylethyl)-5-oxo-1H-imidazol-2-yl]-5(methoxymethyl)-3-pyridinecarboxylic acid]
[3]; 10 Days After Treatment, Sethoxydim 0 lb/A, imidazolinone 0.004 lb/A (0.004 kg/ha)
  Actual Control (%): 12.5%
[3]; [5]
  Actual Control (%): 12.5%
[3]; [6]
  Actual Control (%): 10%
[3]; [7]
  Actual Control (%): 10%
[3]; 20 Days After Treatment, Sethoxydim 0 lb/A, imidazolinone 0.004 lb/A (0.004 kg/ha)
  Actual Control (%): 30%
[3]; [8]
  Actual Control (%): 40%
[3]; [9]
  Actual Control (%): 40%
[3]; [10]
  Actual Control (%): 50%

## CCCC(=NOCC)C1=C(O)CC(CC(C)SCC)CC1=O (stereo not shown) [Sethoxydim, 2-[1-(ethoxyimino)butyl]-5-[2-(ethylthio)propyl]-3-hydroxy-2-cyclohexen-1-one]
[1]; [11]
  TRFRE 7 DAT Control (%): 0%
  TRFRE 16 DAT Control (%): 0%
[3]; 10 Days After Treatment, Sethoxydim 0.1 lb/A (0.1 kg/ha), no imidazolinone
  Actual Control (%): 20%
[3]; 10 Days After Treatment, Sethoxydim 0.2 lb/A (0.2 kg/ha), no imidazolinone
  Actual Control (%): 87.5%
[3]; 20 Days After Treatment, Sethoxydim 0.1 lb/A (0.1 kg/ha), no imidazolinone
  Actual Control (%): 30%
[3]; 20 Days After Treatment, Sethoxydim 0.2 lb/A (0.2 kg/ha), no imidazolinone
  Actual Control (%): 95%
[2]; [11]
  SORHAZ 7 DAT Control (%): 26.7%
  SORHAZ 16 DAT Control (%): 38.3%
